Values quoted from earlier work in US20110003005A1, “Methods of Treating PDNV and PONV with Extended Release Ondansetron Compositions” (priority 2009, published 2011).

## Cc1nccn1CC1CCc2c(c3ccccc3n2C)C1=O (centres unmarked) [ondansetron]
Pan et al. 2008
  effect of ondansetron administered after the 24 h period following surgery: efficacy
  effect of oral ondansetron administered in the 24 h period after surgery: no effect
Orally administered, Gan et al. 2002
  nausea and vomiting post-discharge, relative to placebo: did reduce
Orally administered, Kovac et al. 1999
  improving control of nausea and vomiting in the 24 hour period following surgery: ineffective
Over a 24 and 72 h period following surgery, Thagaard et al. 2003
  orally administered ondansetron versus placebo, nausea and vomiting: no difference
